Experimental data: patent US8658648B2, “Modified chloroquines with single ring moiety or fused ring moiety” (DesignMedix, Inc., priority 2008, dated 2014)
Like-named read-outs stand apart in the source and are kept apart here.

Key:
[1] = test system: D6 (CQ^S) P. falciparum strain; assay: In vitro fluorescence (Sybr Green I) assay for IC50 against D6 strain; assay type: cell-based; settings: Plasmodium falciparum, read-out: IC50-D6
Description: (§1) This method employs fluorescent detection of the level of parasitemia in cultured red blood cells and can be automated for high-throughput screening of antimalarial RCQs. This exemplary method allows the inhibitory agent (such as a MCQ) to be in contact with the parasite for an entire developmental cycle without purine starvation, which is in contrast to the traditional ^3H-hypoxanthine method (Desjardins et al. 1979. Antimicrob. Agents Chemother. 16(6):710-718, which is incorporated herein by reference in its entirety). Briefly, to perform the Smilkstein et al. method, an initial parasitemia of approximately 0.2% is attained by adding uninfected red blood cells (RBCs) to a stock culture of Plasmodium-infected RBCs. […] After a period of incubation (such as about 72 hours), a sufficient amount (e.g., 100 μL) of a fluorescent DNA binding dye-detergent mixture (e.g., Sybr Green I dye-detergent mixture) to lyse cells and bind to DNA is added to the reactions. Because uninfected RBCs have no DNA, only parasite DNA (in infected RBCs) is available for binding to the fluorescent dye (e.g., Sybr Green I). Samples are then incubated in the dark for a period of time (e.g., one hour), followed by measurement of levels of fluorescence. For Sybr Green 1, excitation and emission wavelength are 485 and 530 nm, respectively. Fluorescence readings, which represent the amount of parasite DNA in the sample, can be plotted against the Log [drug] and fit to a curve by nonlinear regression to obtain the IC50 value for the tested compound.
(§2) An in vitro fluorescence assay for determining IC50 of antimalarial drugs was performed as previously described by Smilkstein et al. (2004. Antimicrob. Agents Chemother. 48(5):1803-1806). This procedure can be automated for high-throughput screening of the antimalarial activities of RCQs described herein. This method also allows the tested agent (e.g., a MCQ) to be in contact with the parasite for an entire developmental cycle without purine starvation (which occurs with the commonly used ^3H-hypoxanthine method; see, e.g., Desjardins et al. 1979. Antimicrob. Agents Chemother. 16, (6):710-7188).
(§3) Briefly, an initial parasitemia of approximately 0.2% was attained by addition of uninfected red blood cells to a stock culture of cells infected with Dd2 (CQ^R), 7G8 (CQ^R), or D6 (CQ^S) P. falciparum strains. A 10 mM solution of a test compound (in DMSO) was prepared. The test compound (at a final concentration from 10^−11 to 10^−4 M) and infected red blood cells (at a final concentration of 2% (v/v)) were mixed in 100 μL samples in individual wells of a 96-well plate. Each sample was prepared in triplicate. A triplicate set of reactions containing CQ (instead of the test compound) was included as a control. After a 72 hour incubation period, Sybr Green I dye-detergent mixture (100 μL) was added to each reaction. The samples were further incubated for an hour in the dark, and then placed in a 96-well fluorescence plate reader (Gemini-EM, […]) and analyzed with excitation and emission wavelength bands at 485 and 530 nm, respectively. Fluorescence readings were plotted against the Log [drug], and curve fitting performed by nonlinear regression to find the IC50 value.

[2] = test system: Dd2 (CQ^R) P. falciparum strain; assay: In vitro fluorescence (Sybr Green I) assay for IC50 against Dd2 strain; assay type: cell-based; settings: Plasmodium falciparum, read-out: IC50-Dd2
Description: as §1, §2, §3

[3] = test system: mitogen-induced marine spleen lymphocytes; assay type: cell-based; settings: LC50; mouse spleen lymphocytes, 72 hours incubation, then resazurin 24 hours
Description: Mouse spleen lymphocytes were isolated from C57B1/6J mice by teasing tissues on a metallic sieve screen. […] Two hundred (200) μl isolated cells were then seeded in separate wells of a 96-well flat-bottom tissue culture plate at a density of 2×10^5 cells per well. […] After 72 hours incubation in a humidified atmosphere at 37° C. and 5% CO2, a solution of resazurin PBS was added to a final concentration 10 μM, and the plates were returned to the incubator for another 24 hours. Resazurin is a substrate which changes color in response to metabolic activity (such as that found in living cells). […] LC50 values were determined from plots of florescence versus drug concentration using non-linear regression by Prism software.

[4] = test system: 7G8 (CQ^R) P. falciparum strain; assay: In vitro fluorescence (Sybr Green I) assay for IC50 against 7G8 strain; assay type: cell-based; settings: Plasmodium falciparum, read-out: IC50-7G8
Description: as §1, §2, §3

[5] = test system: P. falciparum strain TM91C235; settings: cited from earlier work; note: key: S = sensitive; R = resistant; S/R = intermediate level of resistance
P. falciparum strain W2 = settings: cited from earlier work; note: key: S = sensitive; R = resistant; S/R = intermediate level of resistance
[6] = test system: P. falciparum strain FCR3; settings: cited from earlier work; note: key: S = sensitive; R = resistant; S/R = intermediate level of resistance
P. falciparum strain Dd2 = settings: cited from earlier work; note: key: S = sensitive; R = resistant; S/R = intermediate level of resistance
P. falciparum strain D6 = settings: cited from earlier work; note: key: S = sensitive; R = resistant; S/R = intermediate level of resistance
[7] = Erythrocyte, D6 (CQ^S) strain in infected red blood cells, 72 hour incubation
[8] = Erythrocyte, Dd2 (CQ^R) strain in infected red blood cells, 72 hour incubation
[9] = Erythrocyte, 7G8 (CQ^R) strain in infected red blood cells, 72 hour incubation

In the case of `Clc1ccc2c(NCCCN3CCN(c4ccccc4)CC3)ccnc2c1` [7-chloro-N-(3-(4-phenylpiperazin-1-yl)propyl)quinolin-4-amine], the IC50 ([1]; D6, Erythrocyte, 72 h) is reported as < 2.5 nM, the IC50 ([2]; DD2, Erythrocyte, 72 h) is reported as < 2.5 nM and the Cytotoxicity [3] is reported as 6400 nM.

In the case of `O=[N+]([O-])c1ccc(N2CCN(CCCNc3ccnc4cc(Cl)ccc34)CC2)nc1` [7-chloro-N-(3-(4-(5-nitropyridin-2-yl)piperazin-1-yl)propyl)quinolin-4-amine], the IC50 [1, 7] is reported as 0.26 nM, the IC50 [2, 8] is reported as 0.48 nM and the IC50 [4, 9] is reported as 0.45 nM.

`Clc1ccc2c(NCCCN3CCN(c4ncccn4)CC3)ccnc2c1` [7-chloro-N-(3-(4-(pyrimidin-2-yl)piperazin-1-yl)propyl)quinolin-4-amine] gave an IC50 [1, 7] of 1.3 nM, an IC50 [2, 8] of 1 nM and an IC50 [4, 9] of 3.3 nM.

For `C=C[C@H]1C[N@@]2CC[C@H]1C[C@H]2[C@H](O)c1ccnc2ccc(OC)cc12` [Quinine], the “Drug susceptibility of P. falciparum strain TM91C235” value [5] is given as “R”, the “Drug susceptibility of P. falciparum strain W2” value (P. falciparum strain W2) is given as “R” and the “Drug susceptibility of P. falciparum strain FCR3” value [6] is given as “S”. For the same compound, the “Drug susceptibility of P. falciparum strain Dd2” value (P. falciparum strain Dd2) was “R” and the “Drug susceptibility of P. falciparum strain D6” value (P. falciparum strain D6) was “S”.

`Fc1ccc(N2CCN(CCCNc3ccnc4cc(Cl)ccc34)CC2)cc1` [7-chloro-N-(3-(4-(4-fluorophenyl)piperazin-1-yl)propyl)quinolin-4-amine] showed an IC50 [1, 7] of 0.14 nM, an IC50 [2, 8] of 0.8 nM and an IC50 [4, 9] of 0.3 nM.

`O=[N+]([O-])c1ccc(N2CCN(CCCNc3ccnc4cc(Cl)ccc34)CC2)c([N+](=O)[O-])c1` [7-chloro-N-(3-(4-(2,4-dinitrophenyl)piperazin-1-yl)propyl)quinolin-4-amine] gave an IC50 ([1]; D6, Erythrocyte, 72 h) of 0.3 nM, an IC50 ([2]; DD2, Erythrocyte, 72 h) of 0.47 nM and an IC50 ([4]; 7G8, Erythrocyte, 72 h) of 0.35 nM.

For `Nc1ccc(N2CCN(CCCNc3ccnc4cc(Cl)ccc34)CC2)cc1` [N-(3-(4-(4-aminophenyl)piperazin-1-yl)propyl)-7-chloroquinolin-4-amine], the IC50 ([1]; D6, Erythrocyte, 72 h) was 1.8 nM, the IC50 ([2]; DD2, Erythrocyte, 72 h) was 3.16 nM and the IC50 ([4]; 7G8, Erythrocyte, 72 h) was 3.2 nM.

In the case of `CC1(C)N=C(N)N=C(N)N1c1ccc(Cl)cc1` [Cycloguanil], the “Drug susceptibility of P. falciparum strain W2” value (P. falciparum strain W2) is given as “R”, the “Drug susceptibility of P. falciparum strain FCR3” value [6] is given as “S” and the “Drug susceptibility of P. falciparum strain Dd2” value (P. falciparum strain Dd2) is given as “S”. For the same compound, the “Drug susceptibility of P. falciparum strain D6” value (P. falciparum strain D6) was “S”.

`Clc1ccc2c(NCCCN3CCN(c4cccnc4)CC3)ccnc2c1` [7-chloro-N-(3-(4-(pyridin-3-yl)piperazin-1-yl)propyl)quinolin-4-amine] gave an IC50 [1, 7] of 2.07 nM, an IC50 [2, 8] of 1.1 nM and an IC50 [4, 9] of 2.9 nM.

`Clc1ccc2c(NCCCN3CCN(c4cccc(-c5ccccc5)c4)CC3)ccnc2c1` [N-(3-(4-(biphenyl-3-yl)piperazin-1-yl)propyl)-7-chloroquinolin-4-amine] showed an IC50 ([1]; D6, Erythrocyte, 72 h) of 0.94 nM, an IC50 ([2]; DD2, Erythrocyte, 72 h) of 1.8 nM and a Cytotoxicity [3] of 2100 nM.

Compound `Cc1ccc(N2CCN(CCCNc3ccnc4cc(Cl)ccc34)CC2)cc1` [7-chloro-N-(3-(4-p-tolylpiperazin-1-yl)propyl)quinolin-4-amine] has an IC50 [1, 7] of 0.11 nM, an IC50 [2, 8] of 0.86 nM and an IC50 [4, 9] of 0.3 nM.

For `OC(c1cc(C(F)(F)F)nc2c(C(F)(F)F)cccc12)C1CCCCN1` (centres unmarked) [Mefloquine], the “Drug susceptibility of P. falciparum strain TM91C235” value [5] is given as “R”, the “Drug susceptibility of P. falciparum strain W2” value (P. falciparum strain W2) is given as “S” and the “Drug susceptibility of P. falciparum strain FCR3” value [6] is given as “S”. The “Drug susceptibility of P. falciparum strain Dd2” value (P. falciparum strain Dd2) was “R” and the “Drug susceptibility of P. falciparum strain D6” value (P. falciparum strain D6) was “S/R”.

Compound `O=[N+]([O-])c1ccc(N2CCN(CCCNc3ccnc4cc(Cl)ccc34)CC2)cc1` [7-chloro-N-(3-(4-(4-nitrophenyl)piperazin-1-yl)propyl)quinolin-4-amine] has an IC50 ([1]; D6, Erythrocyte, 72 h) of 0.8 nM, an IC50 ([2]; DD2, Erythrocyte, 72 h) of 1.14 nM and an IC50 ([4]; 7G8, Erythrocyte, 72 h) of 0.4 nM.

Compound `Clc1ccc2c(NCCCN3CCN(c4ccc(-c5ccccc5)cc4)CC3)ccnc2c1` [N-(3-(4-(biphenyl-4-yl)piperazin-1-yl)propyl)-7-chloroquinolin-4-amine] has an IC50 ([1]; D6, Erythrocyte, 72 h) of 0.1 nM, an IC50 ([2]; DD2, Erythrocyte, 72 h) of 0.36 nM and a Cytotoxicity [3] of 2200 nM. It also gave an IC50 ([4]; 7G8, Erythrocyte, 72 h) of 0.13 nM.

`Clc1ccc2c(NCCCN3CCN(c4ccc(Cl)c(Cl)c4)CC3)ccnc2c1` [7-chloro-N-(3-(4-(3,4-dichlorophenyl)piperazin-1-yl)propyl)quinolin-4-amine] gave an IC50 ([1]; D6, Erythrocyte, 72 h) of 0.1 nM, an IC50 ([2]; DD2, Erythrocyte, 72 h) of 0.9 nM and an IC50 ([4]; 7G8, Erythrocyte, 72 h) of 0.28 nM.

For `O=[N+]([O-])c1cnc(N2CCN(CCCNc3ccnc4cc(Cl)ccc34)CC2)c([N+](=O)[O-])c1` [7-chloro-N-(3-(4-(3,5-dinitropyridin-2-yl)piperazin-1-yl)propyl)quinolin-4-amine], the IC50 [1, 7] was 0.45 nM, the IC50 [2, 8] was 0.85 nM and the IC50 [4, 9] was 0.9 nM.

`Clc1ccc2c(NCCCN3CCN(c4ccncc4)CC3)ccnc2c1` [7-chloro-N-(3-(4-(pyridin-4-yl)piperazin-1-yl)propyl)quinolin-4-amine] gave an IC50 [1, 7] of 2.07 nM, an IC50 [2, 8] of 2 nM and an IC50 [4, 9] of 6.8 nM.

`FC(F)(F)c1ccc(N2CCN(CCCNc3ccnc4cc(Cl)ccc34)CC2)nc1` [7-chloro-N-(3-(4-(5-(trifluoromethyl)pyridin-2-yl)piperazin-1-yl)propyl)quinolin-4-amine] showed an IC50 [1, 7] of 0.5 nM, an IC50 [2, 8] of 0.83 nM and an IC50 [4, 9] of 1 nM.

`FC(F)(F)c1ccc(N2CCN(CCCNc3ccnc4cc(Cl)ccc34)CC2)cc1` [7-chloro-N-(3-(4-(4-(trifluoromethyl)phenyl)piperazin-1-yl)propyl)quinolin-4-amine] gave an IC50 [1, 7] of 0.005 nM, an IC50 [2, 8] of 0.17 nM and an IC50 [4, 9] of 0.2 nM.

Compound `Clc1ccc2c(NCCCN3CCN(c4ccccc4-c4ccccc4)CC3)ccnc2c1` [N-(3-(4-(biphenyl-2-yl)piperazin-1-yl)propyl)-7-chloroquinolin-4-amine] has an IC50 ([1]; D6, Erythrocyte, 72 h) of 1.2 nM, an IC50 ([2]; DD2, Erythrocyte, 72 h) of 2.6 nM and a Cytotoxicity [3] of 1700 nM.

For `Clc1ccc2c(NCCN3CCN(c4ccccn4)CC3)ccnc2c1` [7-chloro-N-(2-(4-(pyridin-2-yl)piperazin-1-yl)ethyl)quinolin-4-amine], the IC50 [1, 7] was 4.57 nM, the IC50 [2, 8] was 3.9 nM and the IC50 [4, 9] was 12.2 nM.

For `COc1ncnc(NS(=O)(=O)c2ccc(N)cc2)c1OC` [Sulfadoxine], the “Drug susceptibility of P. falciparum strain TM91C235” value [5] is given as “R”, the “Drug susceptibility of P. falciparum strain W2” value (P. falciparum strain W2) is given as “R” and the “Drug susceptibility of P. falciparum strain FCR3” value [6] is given as “S”. The “Drug susceptibility of P. falciparum strain Dd2” value (P. falciparum strain Dd2) was “S” and the “Drug susceptibility of P. falciparum strain D6” value (P. falciparum strain D6) was “S”.

For `COc1ccc(N2CCN(CCCNc3ccnc4cc(Cl)ccc34)CC2)cc1` [7-chloro-N-(3-(4-(4-methoxyphenyl)piperazin-1-yl)propyl)quinolin-4-amine], the IC50 [1, 7] was 0.1 nM, the IC50 [2, 8] was 0.48 nM and the IC50 [4, 9] was 0.3 nM.

Work on `Clc1ccc(N2CCN(CCCNc3ccnc4cc(Cl)ccc34)CC2)cc1` [7-chloro-N-(3-(4-(4-chlorophenyl)piperazin-1-yl)propyl)quinolin-4-amine] yielded an IC50 ([1]; D6, Erythrocyte, 72 h) of 0.005 nM, an IC50 ([2]; DD2, Erythrocyte, 72 h) of 0.33 nM and an IC50 ([4]; 7G8, Erythrocyte, 72 h) of 0.09 nM.
